Assay results published in article PMC10794144, “A novel antibiotic class targeting the lipopolysaccharide transporter” (Nature, 2024).
pIC50: −log10 of the molar value. In brackets after ≈: the same amount, converted by molar mass. Several values for one entry are separate records, joined by “and”; a condition that tells them apart may be missing. Equal values may be shown once. Read-outs that look alike come from different tables or passages of the source. Marks after values point to notes of the source that are not given here.

Columns and labels:
[1] = tested on: GABA-A (benzodiazapine binding site); assay: Off-target screening (CEREP); parameters: species or system rat; settings: 10 µM, duplicates
Procedure: (§1) Supplementary Table 1 │ Off-target activity screening f or MCP compou nds […]
(§2) The assays given in the table above were conducted at Eurofins CEREP S A (Celle-Lévescault, France) and were run as single point measurements in duplicates in the presence of 10 µ M of the test compound and reported as percent inhibition of the radioligand signal or control enzymatic activity. n.d., not

[2] = Micronucleus test (MNT)
[3] = tested on: S. aureus ATCC 29213; assay: microbe, parasite or virus in culture; settings: for MIC: Staphylococcus aureus
Procedure: MIC determinations were performed using the broth microdilution method and in line with CLSI guidelines M07 and M100 (refs. [37],[38]). Bacterial inocula were prepared by diluting a 0.5 McFarland suspension in CAMHB or lysogeny broth (LB) specifically for A. baylyi isolates. […] MIC values of all of the tested antibiotics were read as the lowest compound concentration inhibiting bacterial growth by naked eye or beyond which the OD600 ceased to decrease.

[4] = tested on: GSK-3A (second line so named); assay: Off-target screening (CEREP); format: biochemical, human; settings: 10 µM, duplicates
Procedure: as §1, §2

[5] = GSH adduct; format: in vitro ADME
[6] = tested on: GABA Cl- channel receptor; assay: Off-target screening (CEREP); format: binding, rat; settings: 10 µM, duplicates
Procedure: as §1, §2

[7] = tested on: PCP receptor; assay: Off-target screening (CEREP); format: binding, rat; settings: 10 µM, duplicates
Procedure: as §1, §2

[8] = tested on: Ca2+ channel (diltiazem site); assay: Off-target screening (CEREP); format: binding, rat; settings: 10 µM, duplicates
Procedure: as §1, §2

[9] = Ames
[10] = tested on: E. coli ATCC 25922; assay: microbe, parasite or virus in culture
How it was run: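 MIC was taken as the lowest concentration without visible growth, or past which OD600 no longer fell. Testing followed CLSI M07 and M100 broth microdilution, using 0.5 McFarland-derived inocula in CAMHB (LB for A. baylyi isolates).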

[11] = tested on: C. albicans ATCC 90028; assay: microbe, parasite or virus in culture; settings: Candida albicans, ATCC90028
[12] = Rat plasma precipitation assay; settings: for Threshold concentration for precipitation: Wistar rat heparin plasma 1:1 with compound in saline/PBS, absorbance difference OD362 ≥ 0.05, n = 1
Procedure: Whole blood was obtained from WISTAR rats and collected in 1.2 ml heparin tubes for the preparation of heparin plasma. The tubes were then centrifuged for 5 min at 5,200g at room temperature to isolate the plasma supernatant. Test compounds were received as powder and solubilized at various concentrations in 0.9% aqueous sodium chloride solution and adjusted for pH with phosphate-buffered saline (PBS). The assay was conducted in 384-well plates. Rat plasma (10 µl) was added to 10 µl of the various compound solutions. A total of 10 µl of vehicle (0.9% aqueous sodium chloride solution, PBS) added to the plasma was used as a negative control. The absorption was measured at 362 nm. Raw data were obtained as absorbance data. The difference between the absorbance of the sample and the mean absorbance of the vehicle was calculated. The minimum effect concentration was defined as the lowest concentration giving an absorbance difference of OD362 ≥ 0.05.

[13] = tested on: HEK293 cells; assay: Cell-viability assay (CellTiterGlo); format: cell-based; settings: Homo sapiens, 24 h, 37 °C, 3.125–100 μM, n = 2
Procedure: Compounds were prepared in serial dilutions (3.125–100 μM in 1% DMSO) and transferred to 384-well plates together with a positive (Staurosporine) and a negative (no compound) control. In total, 25 μl of HEK293 cells (ATCC; verified by short tandem repeat PCR and mycoplasma negative) (50,000 cells per ml) were added in either low-serum-containing (0.5% fetal bovine serum (FBS)) or high-serum-containing (12.5% FBS, 1% BSA) medium (Dulbecco’s modified Eagle medium (DMEM), glucose, L-glutamine). The plates were incubated for 24 h at 37 °C and a mixture of CellTiterGlo and DMEM was added to the plates. After incubation at room temperature, the luminescence signal was read using a BioTeK reader and a calculated IC50 was derived from the data.

[14] = tested on: C. albicans ATCC 90028; settings: 100%
[15] = Mouse pharmacokinetics study, i.v. bolus; format: in vivo; settings: male CD1 mice, 1 mg/kg IV; for Vss / t1/2, terminal plasma half-life: n = 3; for Cl: n = 3, LC-MS, non-compartmental
Procedure: Three male CD1 mice were administered with compound formulation (0.5 mg ml^−1 in 0.9% aqueous sodium chloride solution) as an intravenous bolus dose of 1 mg per kg. Blood was sampled at 0.08, 0.25, 0.5, 1, 2, 4, 7 and 24 h after administration and the blood collecting tubes were centrifuged for 5 min at 5,200g at room temperature to isolate the plasma supernatant. The concentrations of compound in the plasma were analysed using a liquid chromatography–mass spectrometry method with a calibration range of 5–10,000 ng ml^−1. The pharmacokinetic parameters were derived from the individual concentration data and were estimated by non-compartmental analysis.

[16] = molecular target: hERG (Homo sapiens, UniProt Q12809); assay: hERG
[17] = molecular target: CYP2C9 (Homo sapiens, UniProt P11712); assay: CYP inhibition; format: in vitro ADME
[18] = tested on: panel of 50 off-targets; assay: Off-target activity screening, number of hits in panel of 50; format: binding; settings: > 30% inhibition at 10 μM

Chain of hERG (Q12809 whole entry): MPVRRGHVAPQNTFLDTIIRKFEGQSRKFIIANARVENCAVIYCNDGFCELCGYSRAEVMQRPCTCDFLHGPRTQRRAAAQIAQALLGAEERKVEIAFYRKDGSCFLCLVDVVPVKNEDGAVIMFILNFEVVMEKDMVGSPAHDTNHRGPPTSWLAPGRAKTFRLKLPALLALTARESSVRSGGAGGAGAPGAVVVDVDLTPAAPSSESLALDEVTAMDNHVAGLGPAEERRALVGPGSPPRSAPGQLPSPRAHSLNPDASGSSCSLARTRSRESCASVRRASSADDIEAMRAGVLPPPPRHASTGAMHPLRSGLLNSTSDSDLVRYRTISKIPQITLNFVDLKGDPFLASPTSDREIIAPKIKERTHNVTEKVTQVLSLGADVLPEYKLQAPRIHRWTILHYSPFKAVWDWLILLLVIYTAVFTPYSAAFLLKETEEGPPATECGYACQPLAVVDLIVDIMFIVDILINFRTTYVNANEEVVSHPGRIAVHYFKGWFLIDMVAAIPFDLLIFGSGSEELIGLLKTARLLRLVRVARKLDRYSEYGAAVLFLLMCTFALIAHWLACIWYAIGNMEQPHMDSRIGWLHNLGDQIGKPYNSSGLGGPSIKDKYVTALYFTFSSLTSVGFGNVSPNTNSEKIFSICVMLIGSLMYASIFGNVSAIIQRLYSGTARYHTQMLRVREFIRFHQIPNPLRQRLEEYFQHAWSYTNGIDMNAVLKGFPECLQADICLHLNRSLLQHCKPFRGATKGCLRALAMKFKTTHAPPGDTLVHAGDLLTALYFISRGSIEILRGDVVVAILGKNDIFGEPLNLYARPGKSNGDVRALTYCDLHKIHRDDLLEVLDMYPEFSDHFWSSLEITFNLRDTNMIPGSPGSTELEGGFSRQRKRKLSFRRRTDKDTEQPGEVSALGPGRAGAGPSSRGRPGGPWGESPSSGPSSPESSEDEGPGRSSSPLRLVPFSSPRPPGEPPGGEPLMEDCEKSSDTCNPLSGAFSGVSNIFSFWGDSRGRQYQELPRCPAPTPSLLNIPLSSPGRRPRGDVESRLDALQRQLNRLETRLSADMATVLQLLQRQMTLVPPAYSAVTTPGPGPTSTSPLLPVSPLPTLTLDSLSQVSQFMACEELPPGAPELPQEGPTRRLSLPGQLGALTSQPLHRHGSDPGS
Chain of CYP2C9 (P11712 whole entry): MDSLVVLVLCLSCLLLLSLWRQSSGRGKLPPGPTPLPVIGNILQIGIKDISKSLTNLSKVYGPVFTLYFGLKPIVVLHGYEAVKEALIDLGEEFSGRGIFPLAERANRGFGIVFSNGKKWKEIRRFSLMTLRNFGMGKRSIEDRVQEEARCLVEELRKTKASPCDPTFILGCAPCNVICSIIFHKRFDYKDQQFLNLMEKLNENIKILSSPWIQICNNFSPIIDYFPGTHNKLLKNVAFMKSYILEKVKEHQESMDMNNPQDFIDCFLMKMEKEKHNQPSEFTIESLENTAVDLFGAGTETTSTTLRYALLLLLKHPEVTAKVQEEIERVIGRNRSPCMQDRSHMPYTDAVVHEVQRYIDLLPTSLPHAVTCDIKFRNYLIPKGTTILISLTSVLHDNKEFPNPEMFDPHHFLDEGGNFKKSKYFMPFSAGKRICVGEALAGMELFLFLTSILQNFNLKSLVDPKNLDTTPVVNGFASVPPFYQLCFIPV

CN1C(=O)[C@H](CCCCN)NC(=O)[C@H](CCCN)NCc2cccnc2Sc2c(Cl)ccc(Cl)c2CNC(=O)[C@@H]1Cc1c[nH]c2ccccc12 [RO7075573]
percent inhibition [1]: -20%
MNT [2]: Negative
MIC ([3]; ATCC29213): > 64 µg/mL
MIC 100% ([3]; Study LGC281440): >64 µg/mL
MIC 100% ([3]; Study LGC282160): >64 µg/mL
MIC 100% ([3]; Study LGC284879): >64 µg/mL
MIC 100% ([3]; Study LGC285582): >64 µg/mL
MIC 100% ([3]; Study LGC286210): 64 µg/mL (≈ 86.5 µM)
MIC 100% ([3]; Study LGC293598): >64 µg/mL
MIC 100% ([3]; Study LGC294355): >64 µg/mL
MIC 100% ([3]; Study LGC295147): 64 µg/mL (≈ 86.5 µM)
MIC 100% ([3]; Study LGC296813): >64 µg/mL
MIC 100% ([3]; Study LGC299544): 64 µg/mL (≈ 86.5 µM)
MIC 100% ([3]; Study LGC301026): >64 µg/mL
MIC 100% ([3]; Study LGC308175): >64 µg/mL
MIC 100% ([3]; Study ROC010): 32 µg/mL (≈ 43.3 µM)
MIC 100% ([3]; Study ROC012): 32 µg/mL (≈ 43.3 µM)
percent inhibition [4]: 10%
GSH adduct [5]: Clean
percent inhibition [6]: -9%
percent inhibition [7]: -10%
percent inhibition [8]: -1%
Ames [9]: Negative
MIC ([10]; CAMHB, mode of at least three replicates (RO7036668 one replicate)): >64 µg/mL
MIC ([10]; Escherichia coli, ATCC25922): > 64 µg/mL
MIC 100% ([10]; Study LGC281440): >64 µg/mL
MIC 100% ([10]; Study LGC282160): >64 µg/mL
MIC 100% ([10]; Study LGC284879): >64 µg/mL
MIC 100% ([10]; Study LGC285582): >64 µg/mL
MIC 100% ([10]; Study LGC286210): >64 µg/mL
MIC 100% ([10]; Study LGC293598): >64 µg/mL
MIC 100% ([10]; Study LGC294355): >64 µg/mL
MIC 100% ([10]; Study LGC295147): >64 µg/mL
MIC 100% ([10]; Study LGC296813): >64 µg/mL
MIC 100% ([10]; Study LGC299544): >64 µg/mL
MIC 100% ([10]; Study LGC301026): >64 µg/mL
MIC 100% ([10]; Study LGC308175): >64 µg/mL
MIC 100% ([10]; Study ROC010): >64 µg/mL
MIC 100% ([10]; Study ROC012): >64 µg/mL
MIC [11]: > 64 µg/mL
Threshold concentration for precipitation [12]: 0.038 mg/mL and 0.0385 mg/mL
Threshold concentration causing precipitation ([12]; rat plasma): 52 µM
pIC50 [13]: < 4.00
MIC 100% ([14]; Study LGC281440): 64 µg/mL (≈ 86.5 µM)
MIC 100% ([14]; Study LGC282160): >64 µg/mL
MIC 100% ([14]; Study LGC284879): >64 µg/mL
MIC 100% ([14]; Study LGC285582): >64 µg/mL
MIC 100% ([14]; Study LGC286210): >64 µg/mL
MIC 100% ([14]; Study LGC293598): >64 µg/mL
MIC 100% ([14]; Study LGC294355): >64 µg/mL
MIC 100% ([14]; Study LGC295147): >64 µg/mL
MIC 100% ([14]; Study LGC296813): >64 µg/mL
MIC 100% ([14]; Study LGC299544): >64 µg/mL
MIC 100% ([14]; Study LGC301026): >64 µg/mL
MIC 100% ([14]; Study LGC308175): >64 µg/mL
MIC 100% ([14]; Study ROC010): >64 µg/mL
MIC 100% ([14]; Study ROC012): >64 µg/mL
Vss [15]: 0.3 L/kg
t1/2, terminal plasma half-life [15]: 2 h
Cl [15]: 5.7 mL/min/kg
pIC50 [16]: < 5.00
hERG IC20 [16]: 4 µM
CYP inh. (2C9) [17]: > 50 µM
Off-target hits [18]: 1 #

CN1C(=O)[C@H](CCCCN)NC(=O)[C@H](CCCN)NCc2cccnc2Sc2c(Cl)ccc(-c3ccc(C(=O)O)cc3)c2CNC(=O)[C@@H]1Cc1c[nH]c2ccccc12 [RO7202110]
percent inhibition [1]: 14%
MNT [2]: Negative
MIC ([3]; ATCC29213, CAMHB, mode of at least three replicates (RO7036668 one replicate)): > 64 µg/mL
percent inhibition [4]: -6%
GSH adduct [5]: Clean
percent inhibition [6]: -1%
percent inhibition [7]: 9%
percent inhibition [8]: 2%
Ames [9]: Negative
MIC ([10]; Escherichia coli, ATCC25922): > 64 µg/mL
MIC [11]: > 64 µg/mL
Threshold concentration for precipitation [12]: 0.39 mg/mL
pIC50 [13]: < 4.00
Vss [15]: 0.9 L/kg
t1/2, terminal plasma half-life [15]: 0.2 h
Cl [15]: 84 mL/min/kg
pIC50 [16]: < 4.70
hERG IC20 [16]: > 10 µM
CYP inh. (2C9) [17]: >50 (3A4) >50 (2C9) >50 (2D6) μM
Off-target hits [18]: 2 #
